# Like-named read-outs stand apart in the source and are kept apart here.
# Key:
# Assay in all cases: microbe, parasite or virus in culture
# Format in all cases: cell-based, Hepatitis C virus (HCV)
# Conditions in all cases: Replicon Assay A
# HCV replicon 1AY93H = tested on: HCV replicon 1AY93H
# Outline: (§1)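 Compound is added to replicon cells plated at 2000 cells/well (0.5% DMSO, 5% FBS). After 3 days the cells are washed and lysed, and HCV RNA and cyclophilin mRNA are quantified by multiplex RT-PCR against a standard curve of known replicon total RNA.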
# HCV replicon 1A = tested on: HCV replicon 1A
# Outline: as §1
# HCV replicon 2B = tested on: HCV replicon 2B
# Outline: as §1
# [1] = read-out: 1A Y93H IC50, replicon 1AY93H
# [2] = read-out: 1A Y93H IC50, HCV replicon 1A Y93H
# [3] = read-out: 2B IC50, HCV replicon 2B
# [4] = Hepatitis C virus, read-out: 1A Y93H IC50 (nM), replicon 1AY93H
# [5] = Hepatitis C virus, read-out: 2B IC50 (nM), replicon 2B
SMILES,IC50 (HCV replicon 1AY93H; [1]),IC50 (HCV replicon 1A; replicon 1A),"IC50 (HCV replicon 2B; read-out: 2B IC50, replicon 2B)",IC50 (HCV replicon 1AY93H; [2]),IC50 (HCV replicon 1A; HCV replicon 1A),IC50 (HCV replicon 2B; [3]),also measured
"CCc1ccc(C2Oc3cc(-c4cnc([C@@H]5CCCN5C(=O)C(NC(=O)OC)C5CCOC(C)(C)C5)[nH]4)cc(F)c3-c3cc4cc(-c5cnc([C@@H]6CCCN6C(=O)[C@@H](NC(=O)OC)C(C)C)[nH]5)ccc4n32)s1 (single isomer, unassigned) [Compound 158]",1.07 nM,0.0033 nM,0.43 nM,,,,
"COC(=O)N[C@H](C(=O)N1CCC[C@H]1c1ncc(-c2cc(F)c3c(c2)OC(c2cc(C)c(C)s2)n2c-3cc3cc(-c4cnc([C@@H]5C[C@@H](F)CN5C(=O)[C@@H](NC(=O)OC)C(C)C)[nH]4)ccc32)[nH]1)C(C)C (single isomer, unassigned) [Compound 515]",,,,6.54 nM,0.0103 nM,18.7 nM,
"COC(=O)N[C@H](C(=O)N1CCC[C@H]1c1ncc(-c2ccc3c(c2)OC(c2cc4ccccc4s2)n2c-3cc3cc(-c4cnc([C@@H]5C[C@H]6C[C@H]6N5C(=O)[C@@H](NC(=O)OC)C(C)C)[nH]4)ccc32)[nH]1)C(C)C (single isomer, unassigned) [Compound 609]",,,,18 nM,0.0074 nM,0.995 nM,
"COC(=O)N[C@H](C(=O)N1CCC[C@H]1c1ncc(-c2cc(F)c3c(c2)OC(c2cc(C)c(C)s2)n2c-3cc3cc(-c4cnc([C@@H]5C[C@@H](F)CN5C(=O)[C@@H](NC(=O)OC)C(C)C)[nH]4)ccc32)[nH]1)C(C)C (single isomer, unassigned) [Compound 514]",,,,0.272 nM,0.0474 nM,48.5 nM,
COC(=O)NC(C(=O)N1CCC[C@H]1c1ncc(-c2ccc3c(c2)cc2n3C(c3ccc(CC(F)(F)F)s3)Oc3cc(-c4cnc([C@@H]5CCCN5C(=O)[C@@H](NC(=O)OC)C(C)C)[nH]4)cc(F)c3-2)[nH]1)C1C[C@@H](C)O[C@@H](C)C1 (stereo partly drawn) [Compound 381],,,,,,,"IC50 (HCV replicon 1AY93H; [4]): 0.141 nM; IC50 (HCV replicon 1A; Hepatitis C virus, replicon 1A): 0.0014 nM; IC50 (HCV replicon 2B; [5]): 0.181 nM"
"CCc1ccc(C2Oc3cc(-c4cnc([C@@H]5CCCN5C(=O)[C@@H](NC(=O)OC)C(C)C)[nH]4)cc(F)c3-c3cc4cc(-c5cnc([C@@H]6CCCN6C(=O)C(NC(=O)OC)C6CCOC(C)(C)C6)[nH]5)ccc4n32)s1 (single isomer, unassigned) [Compound 146]",0.57 nM,0.0012 nM,0.38 nM,,,,
"CCc1ccc(C2Oc3cc(-c4cnc([C@@H]5CCCN5C(=O)[C@@H](NC(=O)OC)C(C)C)[nH]4)cc(F)c3-c3cc4cc(-c5cnc([C@@H]6C[C@@H](F)CN6C(=O)C(NC(=O)OC)C6CCOC(C)(C)C6)[nH]5)ccc4n32)s1 (single isomer, unassigned) [Compound 260]",0.047 nM,0.001 nM,11.7 nM,,,,
"COC(=O)NC(C(=O)N1CCC[C@H]1c1ncc(-c2ccc3c(c2)cc2n3C(c3ccc(C(C)C)s3)Oc3cc(-c4cnc([C@@H]5CCCN5C(=O)[C@@H](NC(=O)OC)C(C)C)[nH]4)cc(F)c3-2)[nH]1)C1CCOC(C)(C)C1 (single isomer, unassigned) [Compound 236]",0.18 nM,0.0017 nM,0.24 nM,,,,
"COC(=O)N[C@H](C(=O)N1CCC[C@H]1c1ncc(-c2cc(C)c3c(c2)OC(c2cc4c(s2)CCC4)n2c-3cc3cc(-c4cnc([C@@H]5CCCN5C(=O)[C@@H](NC(=O)OC)C5C[C@@H](C)O[C@@H](C)C5)[nH]4)ccc32)[nH]1)C(C)C (single isomer, unassigned) [Compound 549]",,,,0.563 nM,0.00715 nM,0.169 nM,
COC(=O)N[C@H](C(=O)N1CCC[C@H]1c1ncc(-c2cc(F)c3c(c2)OC(c2cc(C)c(C(C)C)s2)n2c-3cc3cc(-c4cnc([C@@H]5CCCN5C(=O)[C@@H](NC(=O)OC)C(C)C)[nH]4)ccc32)[nH]1)C(C)C (mixture of isomers) [Compound 64],,,,,,,"IC50 (HCV replicon 1AY93H; [4]): 0.15 nM; IC50 (HCV replicon 1A; Hepatitis C virus, replicon 1A): 0.004 nM; IC50 (HCV replicon 2B; [5]): 4.01 nM"
"COC(=O)N[C@H](C(=O)N1CCC[C@H]1c1ncc(-c2cc(F)c3c(c2)OC(c2csc4ccccc24)n2c-3cc3cc(-c4cnc([C@@H]5CCCN5C(=O)[C@@H](NC(=O)OC)C(C)C)[nH]4)ccc32)[nH]1)C(C)C (single isomer, unassigned) [Compound 323]",,,,,,,"IC50 (HCV replicon 1AY93H; [4]): 2.51 nM; IC50 (HCV replicon 1A; Hepatitis C virus, replicon 1A): 0.0021 nM; IC50 (HCV replicon 2B; [5]): 15.8 nM"
"COC(=O)N[C@H](C(=O)N1CCC[C@H]1c1ncc(-c2cc(F)c3c(c2)OC(c2csc4ccccc24)n2c-3cc3cc(-c4cnc([C@@H]5CCCN5C(=O)[C@@H](NC(=O)OC)C(C)C)[nH]4)ccc32)[nH]1)C(C)C (single isomer, unassigned) [Compound 324]",4.89 nM,0.0014 nM,7.99 nM,,,,

# From patent publication US20160257697A1, “THIOPHENE-SUBSTITUTED TETRACYCLIC COMPOUNDS AND METHODS OFUSE THEREOF FOR THE TREATMENT OF VIRAL DISEASES” (priority 2013, published 2016)
